Here are results for eleven compounds from ChEMBL document CHEMBL1201862, “PubChem BioAssay data set” (2004).

The target of data set [1] is T1, Tyrosine-protein phosphatase non-receptor type 7 (Homo sapiens, UniProt P35236).
T1 sequence (P35236 whole entry): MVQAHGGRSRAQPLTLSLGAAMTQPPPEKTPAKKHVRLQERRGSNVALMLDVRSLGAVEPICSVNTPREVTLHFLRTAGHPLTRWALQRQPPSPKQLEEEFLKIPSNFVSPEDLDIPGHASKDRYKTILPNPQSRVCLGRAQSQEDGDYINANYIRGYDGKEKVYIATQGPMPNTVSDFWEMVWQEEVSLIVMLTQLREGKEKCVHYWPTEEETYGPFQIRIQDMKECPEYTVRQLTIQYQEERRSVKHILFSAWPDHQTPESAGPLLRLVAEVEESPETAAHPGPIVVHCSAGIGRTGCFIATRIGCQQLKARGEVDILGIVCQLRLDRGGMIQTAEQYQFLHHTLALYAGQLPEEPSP
The class given is functional.

Data set [2] deals with T2, Tyrosine-protein phosphatase non-receptor type 22 (Homo sapiens, UniProt Q9Y2R2).
T2 sequence (Q9Y2R2 whole entry): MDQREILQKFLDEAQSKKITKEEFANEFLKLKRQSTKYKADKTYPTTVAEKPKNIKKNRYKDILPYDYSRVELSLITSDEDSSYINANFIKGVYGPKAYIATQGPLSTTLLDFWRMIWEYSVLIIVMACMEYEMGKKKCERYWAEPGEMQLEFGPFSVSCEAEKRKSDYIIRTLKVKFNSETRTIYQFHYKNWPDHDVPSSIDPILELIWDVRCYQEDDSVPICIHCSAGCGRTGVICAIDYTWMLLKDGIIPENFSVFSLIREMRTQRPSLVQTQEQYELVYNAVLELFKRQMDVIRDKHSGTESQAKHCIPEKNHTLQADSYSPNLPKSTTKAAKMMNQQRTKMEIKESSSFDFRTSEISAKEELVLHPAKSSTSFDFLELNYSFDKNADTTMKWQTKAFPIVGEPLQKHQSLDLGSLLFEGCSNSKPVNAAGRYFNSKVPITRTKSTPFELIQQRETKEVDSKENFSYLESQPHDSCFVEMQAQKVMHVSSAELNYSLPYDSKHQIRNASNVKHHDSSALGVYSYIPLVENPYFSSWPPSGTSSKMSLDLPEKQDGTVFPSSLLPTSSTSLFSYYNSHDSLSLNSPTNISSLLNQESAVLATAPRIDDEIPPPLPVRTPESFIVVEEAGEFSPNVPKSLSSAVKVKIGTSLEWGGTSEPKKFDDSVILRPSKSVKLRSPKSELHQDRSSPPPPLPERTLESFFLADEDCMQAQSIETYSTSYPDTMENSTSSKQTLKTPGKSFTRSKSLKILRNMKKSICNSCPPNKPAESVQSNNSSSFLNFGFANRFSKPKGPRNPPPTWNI
The class given is functional.

For data set [3], the target named is T2, Tyrosine-protein phosphatase non-receptor type 22. The class given is functional. The source holds these as a separate data set.
The target in data set [4] is Cytochrome P450 2D6 (Homo sapiens, UniProt P10635).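 Note: CYP2D6 member of a cytochrome P450 panel assay.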
Sequence of Cytochrome P450 2D6 (P10635 whole entry): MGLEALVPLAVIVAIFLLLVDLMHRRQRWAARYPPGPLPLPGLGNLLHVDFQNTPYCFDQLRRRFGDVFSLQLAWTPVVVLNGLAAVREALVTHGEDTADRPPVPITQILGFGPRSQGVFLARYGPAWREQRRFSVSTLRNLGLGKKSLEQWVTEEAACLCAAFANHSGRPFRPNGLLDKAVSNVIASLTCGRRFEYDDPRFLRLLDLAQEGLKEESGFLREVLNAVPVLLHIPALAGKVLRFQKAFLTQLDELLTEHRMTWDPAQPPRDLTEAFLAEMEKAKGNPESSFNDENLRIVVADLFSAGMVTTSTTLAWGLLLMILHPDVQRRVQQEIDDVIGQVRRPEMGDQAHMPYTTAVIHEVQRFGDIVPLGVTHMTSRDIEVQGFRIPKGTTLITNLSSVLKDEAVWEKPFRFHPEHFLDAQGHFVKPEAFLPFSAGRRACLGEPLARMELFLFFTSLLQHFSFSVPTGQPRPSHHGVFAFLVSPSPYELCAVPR
The target of data set [5] is Cytochrome P450 3A4 (Homo sapiens, UniProt P08684).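 Note: CYP3A4 tested as one member of a cytochrome P450 panel screen.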
Sequence of Cytochrome P450 3A4 (P08684 whole entry): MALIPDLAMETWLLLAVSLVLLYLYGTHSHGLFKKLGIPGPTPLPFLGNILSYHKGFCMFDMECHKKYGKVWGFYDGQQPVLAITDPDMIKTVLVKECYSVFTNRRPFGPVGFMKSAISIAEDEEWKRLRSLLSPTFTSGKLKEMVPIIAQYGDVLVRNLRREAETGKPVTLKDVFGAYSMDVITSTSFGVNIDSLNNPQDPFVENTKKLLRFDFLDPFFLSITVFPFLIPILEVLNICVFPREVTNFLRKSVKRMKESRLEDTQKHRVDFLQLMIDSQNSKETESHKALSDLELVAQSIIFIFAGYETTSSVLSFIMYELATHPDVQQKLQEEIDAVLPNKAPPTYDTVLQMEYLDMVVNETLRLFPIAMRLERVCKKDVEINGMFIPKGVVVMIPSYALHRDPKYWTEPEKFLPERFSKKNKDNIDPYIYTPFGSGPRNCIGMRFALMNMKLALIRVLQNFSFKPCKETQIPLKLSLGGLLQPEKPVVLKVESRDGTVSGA
Data set [6] has as its target Glucose-6-phosphate 1-dehydrogenase (Homo sapiens, UniProt P11413). Description: inhibition of Homo sapiens G6PD, dose series – biochemical, fluorescence, selectivity assay for P. falciparum G6PD inhibitor project, dose response (AID 504792). The class given is functional.
The test system of data set [7] is HEK293. Description: cells. In kind it is functional, cell-based. To be noted: Homo sapiens.
The subject of data set [8] is HEK293. Description: NOD2 signaling inhibitors in MDP-stimulated cells, cell-based, uHTS, luminescence (AID 2001). The class given is functional. To be noted: Homo sapiens.
Data set [9] concerns HEK293. Description: inhibition of NOD1-driven NF-kB reporter – cell-based, luminescence, uHTS, primary screen (AID 1578). The class given is functional. The following applies: Homo sapiens.
Data set [10] deals with Nucleotide-binding oligomerization domain-containing protein 2 (Homo sapiens, UniProt Q9HC29). Description: inhibition of NOD2-driven NF-kB reporter – cell-based, luminescence, uHTS, HEK293 (AID 1566). In kind it is functional.
Sequence of Nucleotide-binding oligomerization domain-containing protein 2 (Q9HC29 whole entry, the tested form may be a part): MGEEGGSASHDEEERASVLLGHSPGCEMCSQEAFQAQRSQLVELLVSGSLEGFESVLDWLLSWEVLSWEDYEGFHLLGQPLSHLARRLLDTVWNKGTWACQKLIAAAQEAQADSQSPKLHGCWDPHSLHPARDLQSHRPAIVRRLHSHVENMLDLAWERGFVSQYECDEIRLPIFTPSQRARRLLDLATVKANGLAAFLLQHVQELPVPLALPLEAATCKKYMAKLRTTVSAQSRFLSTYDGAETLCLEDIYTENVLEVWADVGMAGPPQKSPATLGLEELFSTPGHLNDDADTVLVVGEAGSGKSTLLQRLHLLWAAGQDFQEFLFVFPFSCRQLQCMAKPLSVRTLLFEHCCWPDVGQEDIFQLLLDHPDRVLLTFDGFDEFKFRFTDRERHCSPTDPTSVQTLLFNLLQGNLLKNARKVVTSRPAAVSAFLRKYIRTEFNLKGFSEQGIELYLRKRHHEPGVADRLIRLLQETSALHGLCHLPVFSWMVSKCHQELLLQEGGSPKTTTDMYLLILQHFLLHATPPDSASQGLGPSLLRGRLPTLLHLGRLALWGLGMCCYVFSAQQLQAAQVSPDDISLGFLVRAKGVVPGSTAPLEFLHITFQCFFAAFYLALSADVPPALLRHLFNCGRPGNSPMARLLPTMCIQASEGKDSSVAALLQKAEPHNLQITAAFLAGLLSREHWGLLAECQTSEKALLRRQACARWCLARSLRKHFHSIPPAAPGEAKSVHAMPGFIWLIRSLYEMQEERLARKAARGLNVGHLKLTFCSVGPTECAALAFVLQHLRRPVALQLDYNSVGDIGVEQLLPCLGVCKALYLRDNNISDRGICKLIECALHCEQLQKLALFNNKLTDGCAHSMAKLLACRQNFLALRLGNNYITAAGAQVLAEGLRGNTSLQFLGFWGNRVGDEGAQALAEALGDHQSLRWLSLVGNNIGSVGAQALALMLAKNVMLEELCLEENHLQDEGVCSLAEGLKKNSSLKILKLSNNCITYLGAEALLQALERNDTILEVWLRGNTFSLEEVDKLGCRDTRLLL
The test system of data set [11] is HEK293. Description: cells. In kind it is functional, cell-based. The following applies: Homo sapiens. The source holds these as a separate data set.
Data set [12] has as its system HEK293. Description: cells. In kind it is functional, cell-based. To be noted: Homo sapiens. The source holds these as a separate data set.
Data set [13] concerns the target T3, Lysine-specific demethylase 4C (Homo sapiens, UniProt Q9H3R0).
T3 sequence (Q9H3R0 whole entry): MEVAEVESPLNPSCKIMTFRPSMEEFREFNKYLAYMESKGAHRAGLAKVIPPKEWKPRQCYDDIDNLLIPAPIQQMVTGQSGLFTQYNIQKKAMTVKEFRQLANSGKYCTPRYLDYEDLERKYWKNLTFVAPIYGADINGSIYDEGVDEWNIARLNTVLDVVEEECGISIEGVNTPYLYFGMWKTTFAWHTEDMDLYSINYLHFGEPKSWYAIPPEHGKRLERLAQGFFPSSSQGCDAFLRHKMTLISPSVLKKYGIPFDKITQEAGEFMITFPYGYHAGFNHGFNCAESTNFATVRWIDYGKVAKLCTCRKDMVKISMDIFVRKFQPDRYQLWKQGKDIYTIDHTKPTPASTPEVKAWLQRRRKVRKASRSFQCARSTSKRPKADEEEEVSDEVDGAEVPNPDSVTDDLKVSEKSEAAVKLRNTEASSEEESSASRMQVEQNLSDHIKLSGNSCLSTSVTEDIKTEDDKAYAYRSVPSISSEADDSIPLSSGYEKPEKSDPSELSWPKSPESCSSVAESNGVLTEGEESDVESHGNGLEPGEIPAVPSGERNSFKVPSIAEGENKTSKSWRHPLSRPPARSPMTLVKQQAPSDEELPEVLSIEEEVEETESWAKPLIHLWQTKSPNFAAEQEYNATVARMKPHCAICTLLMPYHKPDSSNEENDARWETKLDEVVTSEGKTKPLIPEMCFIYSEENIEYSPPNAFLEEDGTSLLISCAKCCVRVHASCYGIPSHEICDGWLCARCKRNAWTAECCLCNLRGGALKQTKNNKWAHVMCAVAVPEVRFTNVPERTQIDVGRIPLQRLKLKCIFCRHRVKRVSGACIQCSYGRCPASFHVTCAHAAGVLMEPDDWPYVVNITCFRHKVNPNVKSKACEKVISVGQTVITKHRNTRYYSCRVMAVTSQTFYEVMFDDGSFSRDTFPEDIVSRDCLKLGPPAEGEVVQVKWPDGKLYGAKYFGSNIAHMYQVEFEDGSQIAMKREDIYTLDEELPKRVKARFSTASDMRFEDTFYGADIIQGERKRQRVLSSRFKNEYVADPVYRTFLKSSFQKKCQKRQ
Description: inhibition of JMJD2C H3K9me3 demethylation – biochemical, DELFIA europium, cherry-picked samples, dose response (AID 488835). The class given is functional.

For data set [14], the target named is T4, Cytochrome P450 1A2 (Homo sapiens, UniProt P05177).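 Note: PubChem cytochrome P450 panel assay, CYP1A2 panel member.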
T4 sequence (P05177 whole entry): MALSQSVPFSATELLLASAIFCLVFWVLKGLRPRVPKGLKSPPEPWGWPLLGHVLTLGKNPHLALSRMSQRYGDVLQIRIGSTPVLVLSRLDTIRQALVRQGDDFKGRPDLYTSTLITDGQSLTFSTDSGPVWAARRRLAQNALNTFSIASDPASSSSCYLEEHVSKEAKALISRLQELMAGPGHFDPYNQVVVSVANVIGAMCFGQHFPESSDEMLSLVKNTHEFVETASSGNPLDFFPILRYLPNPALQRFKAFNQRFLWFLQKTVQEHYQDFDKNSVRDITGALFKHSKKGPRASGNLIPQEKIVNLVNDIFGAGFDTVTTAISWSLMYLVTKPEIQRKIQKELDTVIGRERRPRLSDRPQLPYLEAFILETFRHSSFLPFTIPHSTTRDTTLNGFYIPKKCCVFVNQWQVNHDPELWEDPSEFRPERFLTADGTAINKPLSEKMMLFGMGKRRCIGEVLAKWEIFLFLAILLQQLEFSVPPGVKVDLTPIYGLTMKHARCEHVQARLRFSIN

Data set [15] addresses Cytochrome P450 2C9 (Homo sapiens, UniProt P11712).
Data set [16] addresses T5, E3 ubiquitin-protein ligase XIAP (Homo sapiens, UniProt P98170). Description: Counter Screen using XIAP-Bir3 for Chemical Antagonists of Bir1/2 domains of IAP-family anti-apoptotic proteins. [Related pubchem assays (depositor defined):AID1018, AID1449, AID1514, AID1638, AID1749, AID1750, AID488957, AID488963].
For data set [17], the target named is T5, E3 ubiquitin-protein ligase XIAP. Description: small molecules displacing peptide from XIAP – biochemical, IAP family, fluorescence polarization (AID 1018). In kind it is functional. On the technique in general: Polarisation of emitted light reports the rotation of a fluorescent probe.
The target of data set [18] is Cytochrome P450 2C19 (Homo sapiens, UniProt P33261). Description: Cytochrome panel assay with activity outcomes. Panel member name: p450-cyp2c19 Compounds with AC50 equal or less than 10 uM are considered active. The class given is functional. The following applies: read-out: AC50.
The target in data set [19] is Luciferin 4-monooxygenase (Photinus pyralis, UniProt P08659). Description: inhibition of purified Photinus pyralis luciferase – biochemical, luminescence, dose response (AID 1891).
Sequence of Luciferin 4-monooxygenase (P08659 whole entry): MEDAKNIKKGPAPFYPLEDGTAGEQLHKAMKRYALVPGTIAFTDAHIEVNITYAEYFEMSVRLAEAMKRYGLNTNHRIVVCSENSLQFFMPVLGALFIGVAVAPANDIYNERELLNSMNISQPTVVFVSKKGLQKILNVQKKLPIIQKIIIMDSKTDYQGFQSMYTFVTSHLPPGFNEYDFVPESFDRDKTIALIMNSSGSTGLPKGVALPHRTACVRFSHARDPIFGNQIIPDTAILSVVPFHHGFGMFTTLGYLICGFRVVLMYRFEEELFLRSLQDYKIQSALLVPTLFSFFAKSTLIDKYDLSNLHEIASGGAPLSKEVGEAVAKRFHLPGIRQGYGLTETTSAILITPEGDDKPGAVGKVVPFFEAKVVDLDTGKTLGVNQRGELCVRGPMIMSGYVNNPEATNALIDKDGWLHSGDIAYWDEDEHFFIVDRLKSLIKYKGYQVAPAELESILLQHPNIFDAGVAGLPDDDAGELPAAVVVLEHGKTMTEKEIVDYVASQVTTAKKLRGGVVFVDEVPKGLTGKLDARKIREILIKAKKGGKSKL
The nature of data set [20]: Luminescence Cell-Based Dose Confirmation HTS to Identify Inhibitors of Platelet Dense Granule Release. [Related pubchem assays: 1663 (Primary HTS), 1678 (Summary of Project)]. The class given is functional.
Data set [21] deals with Vero. Description: cells. To be noted: Chlorocebus sabaeus. In kind it is functional.
Data set [22] addresses Paired box protein Pax-8 (Homo sapiens, UniProt Q06710). Description: PAX8 transcriptional activity inhibition in RMG-I – RMG-I cells, luciferase, cherry-pick, dose response (AID 687027).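 Note: luciferase reporter driven by Pax8 target thyroperoxidase promoter measured by SteadyGlo luminescence.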 In kind it is functional, cell-based.
The test system of data set [23] is Vero. Description: cells. The following applies: Chlorocebus sabaeus. In kind it is functional, cell-based.

As a reminder, the IC50 is the concentration that gives 50% inhibition. The AC50 is the concentration at which the activity in the assay is half-maximal. By EC50 is commonly meant the concentration at which the effect is half-maximal. A word on the CC50: it is the concentration giving 50% cytotoxicity.

Active and inactive are the calls of the source.

Sequence of Cytochrome P450 2C9 (P11712 whole entry): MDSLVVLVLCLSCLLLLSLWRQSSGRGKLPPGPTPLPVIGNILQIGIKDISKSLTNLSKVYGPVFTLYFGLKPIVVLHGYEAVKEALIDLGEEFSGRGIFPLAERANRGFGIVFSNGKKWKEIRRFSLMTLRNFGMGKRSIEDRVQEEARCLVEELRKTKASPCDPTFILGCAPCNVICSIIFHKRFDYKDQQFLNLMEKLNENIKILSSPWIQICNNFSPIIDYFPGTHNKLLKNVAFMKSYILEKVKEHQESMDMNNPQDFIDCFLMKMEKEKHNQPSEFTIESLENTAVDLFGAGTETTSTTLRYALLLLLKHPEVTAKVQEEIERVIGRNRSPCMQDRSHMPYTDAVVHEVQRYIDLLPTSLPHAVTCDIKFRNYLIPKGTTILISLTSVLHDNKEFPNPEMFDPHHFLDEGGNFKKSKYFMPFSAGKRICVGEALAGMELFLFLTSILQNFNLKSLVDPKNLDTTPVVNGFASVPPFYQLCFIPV
T5 sequence (P98170 whole entry): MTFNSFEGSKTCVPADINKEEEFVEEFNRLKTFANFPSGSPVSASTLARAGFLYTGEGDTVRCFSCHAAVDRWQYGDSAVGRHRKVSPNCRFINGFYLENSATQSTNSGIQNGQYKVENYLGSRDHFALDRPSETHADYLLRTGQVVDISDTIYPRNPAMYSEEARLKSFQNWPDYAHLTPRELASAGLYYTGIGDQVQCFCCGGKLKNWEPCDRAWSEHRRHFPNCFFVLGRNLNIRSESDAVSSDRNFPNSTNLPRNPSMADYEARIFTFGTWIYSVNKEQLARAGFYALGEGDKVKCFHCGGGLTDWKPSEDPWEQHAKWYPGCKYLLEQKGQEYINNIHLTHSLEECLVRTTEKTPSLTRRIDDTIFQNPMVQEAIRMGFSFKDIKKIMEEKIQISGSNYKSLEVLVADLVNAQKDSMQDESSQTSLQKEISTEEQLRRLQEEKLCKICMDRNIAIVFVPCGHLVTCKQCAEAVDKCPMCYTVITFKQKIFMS
Sequence of Paired box protein Pax-8 (Q06710 whole entry): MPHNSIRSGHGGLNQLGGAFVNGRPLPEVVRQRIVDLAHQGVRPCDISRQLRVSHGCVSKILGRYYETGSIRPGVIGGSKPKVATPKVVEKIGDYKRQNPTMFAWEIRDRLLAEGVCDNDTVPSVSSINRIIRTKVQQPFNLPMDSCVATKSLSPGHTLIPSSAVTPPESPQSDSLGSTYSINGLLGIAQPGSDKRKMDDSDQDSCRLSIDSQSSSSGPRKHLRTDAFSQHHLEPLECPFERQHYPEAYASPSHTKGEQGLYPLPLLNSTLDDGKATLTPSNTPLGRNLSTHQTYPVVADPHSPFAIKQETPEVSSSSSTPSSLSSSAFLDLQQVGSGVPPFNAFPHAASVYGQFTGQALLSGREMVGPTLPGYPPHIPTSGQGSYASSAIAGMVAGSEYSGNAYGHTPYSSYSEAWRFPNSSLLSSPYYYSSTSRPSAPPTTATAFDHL
Sequence of Glucose-6-phosphate 1-dehydrogenase (P11413 whole entry): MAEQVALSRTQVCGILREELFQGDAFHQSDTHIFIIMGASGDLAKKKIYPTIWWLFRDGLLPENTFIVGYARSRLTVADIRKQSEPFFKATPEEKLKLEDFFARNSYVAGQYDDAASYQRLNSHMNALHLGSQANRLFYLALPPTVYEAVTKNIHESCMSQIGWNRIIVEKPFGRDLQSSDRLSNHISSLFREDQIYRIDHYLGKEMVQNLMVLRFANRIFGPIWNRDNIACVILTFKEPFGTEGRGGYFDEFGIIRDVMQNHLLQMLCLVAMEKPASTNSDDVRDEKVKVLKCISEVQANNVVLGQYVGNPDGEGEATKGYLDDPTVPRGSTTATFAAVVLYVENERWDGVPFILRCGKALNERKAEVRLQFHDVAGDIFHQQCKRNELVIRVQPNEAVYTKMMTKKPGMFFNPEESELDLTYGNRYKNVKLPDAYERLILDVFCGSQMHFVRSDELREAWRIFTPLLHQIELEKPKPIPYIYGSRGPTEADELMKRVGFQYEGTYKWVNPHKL

Regarding `O=C(NCc1ccco1)c1ccc2ccccc2n1`, the IC50 in [1], in data set [2] and in [3] was > 79.4 µM (inactive) in each case.
Regarding `Cc1cc(C)n2nc(SCN3C(=O)c4ccccc4C3=O)nc2n1`, the AC50 entry in [4] is “inconclusive”; in [5], 6.31 µM (inconclusive).
As for `COc1ccc(C(=O)Nc2nnc(S(=O)(=O)N3CCOCC3)s2)cc1`, in data set [6], the IC50 is > 80 µM (inactive).
Turning to `COc1cccc(OCc2cc(C(=O)NCc3cnc4ccccn34)no2)c1`, the IC50 is 18.9 µM (active) in data set [7], > 20 µM (inactive) in [8], > 20 µM (inactive) in [11] and > 20 µM (inactive) in [12]. Further, the values for the EC50 in data set [9] and in data set [10] were 12.9 µM (active) and > 20 µM (inactive), respectively.
On to `COc1ccc(/C=C2/C(=O)NC(=O)N(C3CCCCC3)C2=O)cc1CSc1ccccn1`, for which, in [13], the AC50 is 10 µM (active).
In the case of `CCC(=O)c1ccc(OCc2ccc(C(=O)OC)cc2)c(OC)c1`, the AC50 result in data set [4] was “inconclusive”; in data set [14], 6.31 µM (inconclusive); in [15], 8.91 µM (inconclusive).
`Cc1cc(NC(=O)c2cc([N+](=O)[O-])cc([N+](=O)[O-])c2)n(-c2ccccc2)n1`: the IC50 is > 100 µM (inactive) in data set [16] and > 100 µM (not active) in data set [17].
For `CC(C)CNC(=O)c1nc(-c2ccccc2)n(-c2ccccc2)n1`, the AC50 entry in data set [4] is “inconclusive”; in [14] it was 28.2 µM (inconclusive); in [18], 39.8 µM (inconclusive); in data set [15] it was 39.8 µM (inconclusive).
For the compound `Cc1ccc(S(=O)(=O)c2nc(-c3ccccc3)oc2NCCN2CCOCC2)cc1`, the IC50 was > 79.4 µM (inactive) in data set [1], > 79.4 µM (inactive) in data set [2] and 75.3 µM (active) in data set [3].
As for `Cc1ccc(-n2c(C)cc(/C=c3/sc4nc5ccccc5n4c3=O)c2C)cc1`, the IC50 in data set [7] was 0.703 µM (active); in data set [8] it was 0.48 µM (active); in data set [11] it was > 20 µM (inactive); in data set [12] it was > 20 µM (inactive). The EC50 is > 112 µM (not active) in data set [19], 2.95 µM (active) in [9], 0.49 µM (active) in data set [10] and > 112 µM (not active) in [20].
For `CC(=O)O[C@H]1C[C@H](O[C@H]2[C@@H](O)C[C@H](O[C@H]3[C@@H](O)C[C@H](O[C@H]4CC[C@@]5(C)[C@H](CC[C@@H]6[C@@H]5C[C@@H](O)[C@]5(C)[C@@H](C7=CC(=O)OC7)CC[C@]65O)C4)O[C@@H]3C)O[C@@H]2C)O[C@H](C)[C@H]1O[C@@H]1O[C@H](CO)[C@@H](O)[C@H](O)[C@H]1O` [LANATOSIDE C], in data set [21], the CC50 was 0.65 µM (active). Moreover, the AC50 in [22] is 0.801 µM (active). Moreover, the IC50 in data set [23] is > 25 µM (active).
